# Columns and labels:
# [1] = tested on: ducksalad (HETLI); experiment: Test 32 greenhouse, simulated flooded rice culture; format: in vivo, Heteranthera limosa; set-up: scale not given here; settings: postemergence to flood, 21 DAA
# Method: A greenhouse trial was conducted to evaluate the effects of Compound 1 and isoxadifen-ethyl at different ratios in simulated flooded rice culture. Plastic pots (11-cm diameter) were partially filled with non-sterilized Tama silt loam soil containing a 15:57:28 ratio of sand, silt and clay and 2.9% organic matter. Seeds of Heteranthera limosa (ducksalad; HETLI), Cyperus difformis (smallflower umbrella sedge; CYPDI), one stand of Echinochloa crus-galli (barnyardgrass; ECHCG), and one stand of four rice seedlings (Oryza sativa cv. ‘M202’; ORYSA) were planted into a single 11-cm diameter pot for each rate and mixture of rates. To obtain this planting, C. difformis and H. limosa seeds were planted separately on the surface soil layer at particular locations within each pot. Water levels were brought to a puddled condition above the soil surface directly after planting. E. crus-galli and rice seeds were planted in cavity trays in the silt loam soil and transplanted at the 1.5 and 2.0 leaf stage, respectively. E. crus-galli and rice plants were transplanted to about 2-cm depth by transferring plugs from the cavity trays. Plantings were sequential so that these plant species all reached the 2.0- to 2.5-leaf stage in the 11-cm diameter pot at time of treatment. Plantings were established and maintained in a greenhouse with day and night temperatures of about 29.5 and 26.7° C. respectively; supplemental balanced lighting was provided to maintain a 16-hour photoperiod. Pots were fertilized periodically with a 200 ppm solution of commercial Scotts Peters® Professional® General Purpose 20-20-20 Water Soluble Fertilizer, amended to 10 ppm with a commercial iron-chelate micronutrient fertilizer. The solution was supplied at time of watering via a liquid fertilizer injector.
# At treatment time, test pots were flooded to 3 cm above the soil surface and maintained at that water depth for the duration of the test. Chemical treatments were formulated in acetone and applied directly to the paddy water (i.e., postemergence to flood). Make-up volumes of acetone were added to ensure that all pots were treated with a consistent volume. Test pots were maintained in the greenhouse. A randomized complete block design was employed. Five replicates of each treatment, alone and in mixture, were used. Each species was visually evaluated for treatment effects by comparing those treated to untreated controls and rated for plant response after 21 days.
# [2] = tested on: redroot pigweed (AMARE); experiment: Test 24 growth chamber, postemergence; format: in vivo, Amaranthus retroflexus; settings: 17 DAA
# Method: Plants were treated postemergence at the 2-4 leaf growth stage, and each treatment was replicated three times. […] Plants were watered as needed. […] Results for barley and wheat are the means across varieties of the three replicates, and results for the weeds are the means of the three replicates.
# [3] = tested on: corn (ZEAMD); experiment: Test 25 field trial, postemergence, growth as percent of control; format: in vivo, Zea mays ssp. indentata; settings: hybrid Pioneer 31G96 RR, Zea mays ssp. indentata (corn), in vivo
# Text: (§1) Corn seeds (hybrid ‘Pioneer 31G96 RR’) were planted in mid spring season, 3.8 cm deep in a clay loam soil having 2% organic matter and a pH of 6.6. Plots were 6.1 m long by 3.0 m wide with rows spaced 76 cm apart. Seeds were spaced 15 cm apart within the rows. The field was managed using conventional tillage practices. […] Giant ragweed and Pennsylvania smartweed could only be evaluated 14 days after application. […] Results are the means of the three replicates. This growth inhibition data was converted to results in the form of “plant growth as a percent of control plant growth” using the calculation “100 minus growth inhibition”.
# (§2) When this form of Colby's Equation is used, if the observed effects on weeds are less than the expected values, the mixture is synergistic.
# [4] = tested on: common ragweed (AMBEL); experiment: as above; format: in vivo, Ambrosia artemisiifolia
# Text: as §1, §2
# [5] = tested on: corn (ZEAMD); experiment: Test 31 field trial, corn hybrids at V4 growth stage; format: in vivo, Zea mays ssp. indentata; settings: postemergence, 14 DAA; for 34A15 Obs: corn hybrid 34A15; for 34N43 Obs: corn hybrid 34N43; for 35D28 Obs: corn hybrid 35D28; for 3730 Obs: corn hybrid 3730
# Text: Corn seeds of hybrids Pioneer ‘34A15’, ‘34N43’, ‘35D28’, and ‘3730’ were planted in mid-spring season, approximately 3.8 cm deep in a sandy loam soil having 3.8% organic matter and a pH of 6.5. Plots were 9.1 m long by 3.0 m wide with rows spaced 76 cm apart. Seeds were spaced approximately 18 cm apart within the rows. The field was managed using conventional tillage practices. Plots were arranged with hybrid as the main block and herbicide treatments randomized within each block. Treatments were applied to corn in the V4 growth stage using a backpack sprayer delivering a spray volume of 131 L/ha with a pressure of 221 kPa. Treatments consisted of Compound 2 alone and in combination with a premix formulation of foramsulfuron and isoxadifen-ethyl, dissolved or suspended in water containing the spray adjuvants ammonium sulfate, applied at 1 kg/Ha, and methylated seed oil, applied at 1% vol/vol. Effects on the treated corn plants and untreated controls were recorded 14 days after application.
# [6] = tested on: dry-seeded rice (ORYSA); experiment: Test 28 greenhouse, postemergence; format: in vivo, Oryza sativa; settings: 26 DAA
# Method: A greenhouse test was conducted to evaluate the effects on the plant species corn (ZEAMD, Zea mays ssp. indentata), sorghum (SORVU, Sorghum vulgare L.), dry-seeded rice (ORYSA, Oryza sativa L.), wheat (TRZAW, Triticum aestivum L.), ivyleaf morningglory (IPOHE, Ipomoea hederacea (L.) JACQ.), and barnyardgrass (ECHCG, Echinochloa crus-galli (L.) P. BEAUV.), of mixtures of Compound 2 with isoxadifen-ethyl. Corn, sorghum, rice, wheat, ivyleaf morningglory and barnyardgrass seeds were planted in RediEarth, a commercial potting medium. […] Corn plants were treated postemergence at the V2 growth stage, and sorghum, rice, wheat, ivyleaf morningglory, and barnyardgrass plants were treated postemergence at the 3-leaf stage. […] Each treatment was replicated three times. […] Plants were watered as needed.
# [7] = tested on: common lambsquarters (CHEAL); experiment: Test 25 field trial, postemergence, growth as percent of control; format: in vivo, Chenopodium album
# Text: as §1, §2
compound,measurement,setting,value
"Nc1nc(C2CC2)nc(C(=O)O)c1Cl [Compound 1, 6-amino-5-chloro-2-cyclopropyl-4-pyrimidinecarboxylic acid]",HETLI Obs,[1]; Cpd 1 31.25 g a.i./ha,38
same,HETLI Obs,[1]; Cpd 1 62.5 g a.i./ha,76
same,HETLI Obs,[1]; Cpd 1 125 g a.i./ha,95
"COC(=O)c1nc(C2CC2)nc(N)c1Cl [Compound 2, methyl 6-amino-5-chloro-2-cyclopropyl-4-pyrimidinecarboxylate]",AMARE Obs (scale 0 to 100),[2]; Cpd 2 4 g a.i./ha,63
same,AMARE Obs (scale 0 to 100),[2]; Cpd 2 8 g a.i./ha,67
same,AMARE Obs (scale 0 to 100),[2]; Cpd 2 16 g a.i./ha,75
same,ZEAMD Obs (percent of control),[3]; 14 days after application,100%
same,ZEAMD Obs (percent of control),[3]; 56 days after application,100%
same,AMBEL Obs (percent of control),"[4]; Cpd 2 15 g a.i./ha, 14 DAA",20%
same,AMBEL Obs (percent of control),"[4]; Cpd 2 15 g a.i./ha, 28 DAA",16%
same,AMBEL Obs (percent of control),"[4]; Cpd 2 15 g a.i./ha, 56 DAA",0%
same,AMBEL Obs (percent of control),"[4]; Cpd 2 30 g a.i./ha, 14 DAA",22%
same,AMBEL Obs (percent of control),"[4]; Cpd 2 30 g a.i./ha, 28 DAA",12%
same,AMBEL Obs (percent of control),"[4]; Cpd 2 30 g a.i./ha, 56 DAA",0%
same,AMBEL Obs (percent of control),"[4]; Cpd 2 45 g a.i./ha, 14 DAA",12%
same,AMBEL Obs (percent of control),"[4]; Cpd 2 45 g a.i./ha, 28 DAA",8%
same,AMBEL Obs (percent of control),"[4]; Cpd 2 45 g a.i./ha, 56 DAA",0%
same,34A15 Obs,[5]; Cpd 2 30 g a.i./ha,25
same,34A15 Obs,[5]; Cpd 2 60 g a.i./ha,30
same,34N43 Obs,[5]; Cpd 2 30 g a.i./ha,15%
same,34N43 Obs,[5]; Cpd 2 60 g a.i./ha,20%
same,35D28 Obs,[5]; Cpd 2 30 g a.i./ha,60
same,35D28 Obs,[5]; Cpd 2 60 g a.i./ha,65
same,3730 Obs,[5]; Cpd 2 30 g a.i./ha,60
same,3730 Obs,[5]; Cpd 2 60 g a.i./ha,75
same,ORYSA Obs,[6]; Cpd 2 32 g a.i./ha,60
same,ORYSA Obs,[6]; Cpd 2 64 g a.i./ha,83
same,CHEAL Obs (percent of control),"[7]; Cpd 2 15 g a.i./ha, 14 DAA",15%
same,CHEAL Obs (percent of control),"[7]; Cpd 2 15 g a.i./ha, 28 DAA",2%
same,CHEAL Obs (percent of control),"[7]; Cpd 2 15 g a.i./ha, 56 DAA",0%
same,CHEAL Obs (percent of control),"[7]; Cpd 2 30 g a.i./ha, 14 DAA",20%
same,CHEAL Obs (percent of control),"[7]; Cpd 2 30 g a.i./ha, 28 DAA",1%
same,CHEAL Obs (percent of control),"[7]; Cpd 2 30 g a.i./ha, 56 DAA",0%
same,CHEAL Obs (percent of control),"[7]; Cpd 2 45 g a.i./ha, 14 DAA",7%
same,CHEAL Obs (percent of control),"[7]; Cpd 2 45 g a.i./ha, 28 DAA",0%
same,CHEAL Obs (percent of control),"[7]; Cpd 2 45 g a.i./ha, 56 DAA",0%

# From patent US20100285959A1, “HERBICIDAL MIXTURES” (priority 2006, published 2010)
